Test results from US20110263693A1, “CELASTROL, GEDUNIN, AND DERIVATIVES THEREOF AS HSP90 INHIBITORS” (DANA-FARBER CANCER INSTITUTE, INC., priority 2006, published 2011).
Residues, ends and D or L forms follow the SMILES beside them. *: point of attachment. Cbz = O=C(OCc1ccccc1)*

Tests used:
[1] = test system: gedunin signature; assay: Connectivity Map query with the gedunin signature; type: cell-based, human; design: key to gedunin score (connectivity score): connectivity score, based on Kolmogorov-Smirnov statistic; conditions: for gedunin score (connectivity score): enrichment of the gedunin signature (20 μM gedunin at 6 hours, LNCaP) in the compound's Connectivity Map profiles, 6 hr treatment; for gedunin rank: rank by gedunin score among 164 Connectivity Map compounds
Source text: (§1) Indeed, a major challenge in cell-based chemical biology and chemical genomics is the identification of compounds' targets (Gardner et al., 2003). We hypothesized that gene expression signatures could be used to identify compound action based on the similarity of such compound-induced signatures to signatures of existing drugs of known mechanism. We therefore employed a collection of gene expression profiles of drug-treated cell lines that was developed in our lab, termed the Connectivity Map (Lamb et al., 2006). This database comprises 453 genome-wide Affymetrix expression profiles derived from the treatment of human cell lines with 164 small molecules, primarily FDA-approved drugs. A 6 hr treatment time was chosen in an attempt to capture the primary, and potentially mechanistic, effects of the compounds rather than the downstream phenotypic consequences.
(§2) In order to use the Connectivity Map to gain insight into celastrol and gedunin function, we first defined a gene expression signature of celastrol and gedunin activity. The expression signatures of celastrol and gedunin were derived by expression profiling of RNA from LNCaP cells treated with celastrol (1.25 μM), gedunin (20 μM), and vehicle (DMSO) for 6 hr; signatures were defined using comparative marker selection to identify transcripts that distinguished between the compound- and vehicle-treated profiles by the signal-to-noise (SNR) metric. The enrichment of these signatures in the gene expression profiles of the Connectivity Map database was then assessed using a gene enrichment metric, the connectivity score, based on the Kolmogorov-Smirnov statistic (Lamb et al., 2003).
(§3) The celastrol and gedunin signatures were developed from RMA-processed microarray data from LNCaP cells treated with 1.25 μM celastrol or 20 μM gedunin for 6 hours. Comparative marker selection was used to identify markers that distinguished celastrol- and/or gedunin-treated samples from vehicle-treated samples by the median SNR (Golub et al., 1999). The top 50 markers that increased and decreased relative to vehicle-treated controls were used as the signatures.
(§4) The current version of the Connectivity Map data set (build01) contains genome-wide expression data for 453 treatment and vehicle control pairs, representing 164 distinct small molecules. Cell treatments and Affymetrix profiling were predominantly carried out in MCF7 cells with 6 hr treatments as detailed (Table 4) (Lamb et al., 2006). Enrichment of the induced and repressed genes of a signature within each Connectivity Map treatment profile was estimated with a metric based on the Kolmogorov-Smirnov statistic as described (Lamb et al., 2003, Lamb et al., 2006). Connectivity Map data are available at www.broad.mit.edu/cmap/ and GEO (accession number GSE5258).
(§5) For the celastrol and gedunin signatures, RMA-processed data was filtered and thresholded (min fold change=2, min absolute change=50, floor=10, ceiling=16000). Comparative marker selection (GenePattern) was used to identify markers that distinguished celastrol- and/or gedunin-treated samples from vehicle-treated samples by the median SNR. The top fifty markers that increased and decreased relative to vehicle treated controls were used as the celastrol, gedunin, or joint celastrol/gedunin signatures.
(§6) The current version of The Connectivity Map dataset (build01) contains genome-wide expression data for 453 treatment and vehicle control pairs, representing 164 distinct small molecules. Cell treatments were predominantly carried out in the MCF7 cell line for 6 h as detailed in Table 4. Affymetrix profiling was then carried out as described (Lamb et al., 2006).

[2] = test system: celastrol signature; assay: Connectivity Map query with the celastrol signature; type: cell-based, human; design: key to celastrol score (connectivity score): connectivity score, based on Kolmogorov-Smirnov statistic; conditions: for celastrol score (connectivity score): enrichment of the celastrol signature (1.25 μM celastrol at 6 h, LNCaP) in the compound's Connectivity Map profiles, 6 hr treatment; for celastrol rank: rank by celastrol score among 164 Connectivity Map compounds
Source text: as §1, §2, §3, §4, §5, §6

Molecule | gedunin score (connectivity score) [1] | celastrol score (connectivity score) [2] | gedunin rank [1] | celastrol rank [2]
CC/C(=C(\c1ccccc1)c1ccc(OCCN(C)C)cc1)c1ccccc1 [tamoxifen] | 0.216 | 0 | – | –
CC1=C(CC(=O)O)c2cc(F)ccc2/C1=C\c1ccc(S(C)(=O)=O)cc1 [exisulind] | −0.277 | −0.038 | – | –
C[C@H]1c2cccc(O)c2C(=O)C2=C(O)[C@]3(O)C(=O)C(C(N)=O)=C(O)[C@@H](N(C)C)[C@@H]3[C@@H](O)[C@@H]21 [doxycycline] | 0 | 0 | – | –
C=C[C@@]1(C)CC(=O)[C@]2(O)[C@@]3(C)[C@@H](O)CCC(C)(C)[C@@H]3[C@H](O)[C@H](OC(C)=O)[C@@]2(C)O1 [colforsin] | 0 | 0 | – | –
Nc1ncn([C@H]2C[C@H](O)[C@@H](CO)O2)c(=O)n1 [decitabine] | 0 | 0 | – | –
O=c1cc(N2CCOCC2)oc2c(-c3ccccc3)cccc12 [LY-294002] | 0 | −0.512 | – | –
OCCN1CCN(CCCN2c3ccccc3Sc3ccc(C(F)(F)F)cc32)CC1 [fluphenazine] | 0.34 | 0.481 | – | –
COc1cc2ncnc(Nc3ccc(F)c(Cl)c3)c2cc1OCCCN1CCOCC1 [gefitinib] | 0 | −0.713 | – | –
Oc1cccc2c(O)nccc12 [1,5-isoquinolinediol] | 0 | −0.608 | – | –
Nc1ccc(O)c(C(=O)O)c1 [mesalazine] | 0 | 0 | – | –
CC/C=C\C/C=C\C/C=C\C/C=C\C/C=C\C/C=C\CCC(=O)OCC [docosahexaenoic acid ethyl ester] | 0.493 | 0.572 | 21 | 14
CC(Cc1ccc(O)c(O)c1)C(C)Cc1ccc(O)c(O)c1 (stereo not shown) [nordihydroguaiaretic acid] | 0.286 | 0.264 | – | –
N=C(N)c1ccc(OCCCCCOc2ccc(C(=N)N)cc2)cc1 [pentamidine] | 0.456 | 0 | – | –
O=CC[C@@H](O)[C@H](O)[C@H](O)CO [2-deoxy-D-glucose] | 0.378 | 0 | – | –
Nc1nc2nc[nH]c2c(=S)[nH]1 [tioguanine] | −0.613 | 0 | – | –
COC[C@H]1OC(=O)c2coc3c2[C@@]1(C)C1=C(C3=O)[C@@H]2CCC(=O)[C@@]2(C)C[C@H]1OC(C)=O [wortmannin] | 0.126 | −0.324 | – | –
CCOC(=O)C1=C(C)NC(C)=C(C(=O)OC)C1c1cccc(Cl)c1Cl (stereo not shown) [felodipine] | 0.171 | 0.171 | – | –
C=CC[C@@H]1/C=C(\C)C[C@H](C)C[C@H](OC)[C@H]2O[C@@](O)(C(=O)C(=O)N3CCCC[C@H]3C(=O)O[C@H](/C(C)=C/[C@@H]3CC[C@@H](O)[C@H](OC)C3)[C@H](C)[C@@H](O)CC1=O)[C@H](C)C[C@@H]2OC [tacrolimus] | 0 | 0 | – | –
COc1cc2ncnc(Nc3cccc(Cl)c3)c2cc1OC [tyrphostin AG-1478] | 0.529 | 0 | 14 | 127
Oc1ccc(C=Cc2cc(O)cc(O)c2)cc1 [resveratrol] | 0.4 | 0.266 | – | –
C[C@]12CCC(=O)C=C1CC[C@H]1[C@@H]3CC[C@](O)(C(=O)CO)[C@@]3(C)C[C@H](O)[C@@]12F [fludrocortisone] | 0 | 0 | – | –

Molecule | gedunin score (connectivity score) [1] | celastrol score (connectivity score) [2] | gedunin rank [1] | celastrol rank [2]
depudecin | 0.176 | 0.22 | – | –
Cc1ccc(-c2cc(C(F)(F)F)nn2-c2ccc(S(N)(=O)=O)cc2)cc1 [celecoxib] | 0.114 | −0.01 | – | –
O=c1[nH]c2ccccc2c2ccccc12 [phenanthridinone] | −1 | 0.429 | 164 | 32
O=C(/C=C/c1ccc(O)c(O)c1)c1ccc(O)cc1O [butein] | 0.45 | 0.295 | – | –
O=C1NC(=O)c2cc(Nc3ccccc3)c(Nc3ccccc3)cc21 [4,5-dianilinophthalimide] | 0 | 0 | – | –
CC(C)C[C@@H](C=O)NC(=O)[C@H](CC(C)C)NC(=O)[C@H](CC(C)C)NC(=O)OCc1ccccc1 [MG-132] (Cbz-Leu-Leu-Leu-aldehyde) | 0.912 | 0.902 | – | –
CCOC(=O)C(C)(C)Oc1ccc(Cl)cc1 [clofibrate] | 0 | 0 | – | –
NC(CO)C(=O)NNCc1ccc(O)c(O)c1O (stereo not shown) [benserazide] | −0.441 | 0 | – | –
CN(C)CCC=C1c2ccccc2CCc2ccccc21 [amitriptyline] | 0 | 0 | – | –
CN(C)c1ccc(O)c2c1C[C@H]1C[C@H]3[C@H](N(C)C)C(O)=C(C(N)=O)C(=O)[C@@]3(O)C(O)=C1C2=O [minocycline] | 0 | 0 | – | –
COC(=O)Nc1nc2ccc(C(=O)c3cccs3)cc2[nH]1 [nocodazole] | 0.436 | 0.517 | – | –
O=C1CCC(N2C(=O)c3ccccc3C2=O)C(=O)N1 (stereo not shown) [thalidomide] | 0.121 | −0.256 | – | –
CC(=O)N(O)CCCCCNC(=O)CCC(=O)N(O)CCCCCNC(=O)CCC(=O)N(O)CCCCCN [deferoxamine] | 0 | −0.175 | – | –
O=C(O)CCc1nc(-c2ccccc2)c(-c2ccccc2)o1 [oxaprozin] | 0.562 | 0.445 | – | –
CN(C)C(=N)N=C(N)N [metformin] | −0.108 | −0.029 | – | –
CC(=O)OCOC(c1ccc2ccccc2c1)P(=O)(OCOC(C)=O)OCOC(C)=O (stereo not shown) [HNMPA-(AM)3] | 0.365 | 0 | 36 | 103
C=C1C[C@@H]2[C@H](CC[C@]3(C)C(=O)CC[C@@H]23)[C@@]2(C)C=CC(=O)C=C12 [exemestane] | 0 | 0.427 | – | –
CN1CCN(CCCN2c3ccccc3Sc3ccc(C(F)(F)F)cc32)CC1 [trifluoperazine, reference compound] | 0.559 | – | – | –
ikarugamycin | 0 | 0.172 | 124 | 59
CC[C@@]1([C@@H]2O[C@@H]([C@H]3O[C@@](O)(CO)[C@H](C)C[C@@H]3C)C[C@@H]2C)CC[C@H]([C@]2(C)CC[C@]3(C[C@H](O)[C@@H](C)[C@@H]([C@@H](C)[C@@H](OC)[C@H](C)C(=O)O)O3)O2)O1 [monensin] | 0 | 0.454 | – | –
